Read-outs that look alike come from different tables or passages of the source.
Columns and labels:
[1] = 45-day oral tolerability and electroretinogram study, head-to-head with vigabatrin; type: in vivo, mice
Method: (§1) In adult mice, an acute no-observed adverse-effect level (NOAEL) of 6 mg/kg by mouth was determined by evaluating behavioral neurotoxicity in naive animals. […] Based on these findings, it is clear that the inhibition of GABA-AT by (S)-3-amino-4-(difluoromethylenyl)cyclopent-1-ene-1-carboxylic acid is not necessarily associated with vigabatrin-like retinal toxicity.

[2] = Pharmacokinetics after oral administration in dog; type: in vivo
[3] = Acute behavioral neurotoxicity in naive adult mice; settings: in vivo, oral
Method: as §1

[4] = Non-GLP safety assessment of retinal function and structure; type: in vivo, rats
Method: (§2) A non-GLP safety assessment for changes in retinal function and structure were evaluated in rats. […] In addition, toxicity of (S)-3-amino-4-(difluoromethylenyl)cyclopent-1-ene-1-carboxylic acid was assessed in non-GLP single-dose and repeat dose toxicity studies in rats and dogs. […] (S)-3-amino-4-(difluoromethylenyl)cyclopent-1-ene-1-carboxylic acid was not genotoxic in the Ames assay. The Ames assay is a well-known method that uses several strains of the bacterium Salmonella typhimurium to test whether a given chemical can cause mutations in the DNA of the test organism. No CNS or cardiovascular safety liabilities were identified in an Irwin study in mice. The Irwin observation test is commonly used to evaluate the effects of a new substance on behavior and physiological function. Roux et al., Curr Protoc Pharmacol. 2005 Jan. 1; Chapter 10:Unit 10.

[5] = Pharmacokinetics after oral administration in rat; settings: in vivo
[6] = Plasma protein binding, human; type: in vitro ADME; settings: 37° C., one range given for rat, dog and human, read-out: bound to plasma proteins
Method: (§3) (S)-3-amino-4-(difluoromethylenyl)cyclopent-1-ene-1-carboxylic acid was minimally bound (4 to 20%) to proteins in rat, dog, and human plasma at 37° C.

[7] = Plasma protein binding, rat; type: in vitro ADME; settings: 37° C., one range given for rat, dog and human, read-out: bound to plasma proteins
Method: as §3

[8] = Non-GLP 10-day repeat dose toxicity study in rats; type: in vivo; settings: for human dose converted from tolerated rat dose: Reagan-Shaw conversion
Method: as §2

[9] = biological target: hERG channel (Homo sapiens, UniProt Q12809); experiment: hERG channel activity in vitro
[10] = Genetic toxicity in vitro
[11] = Clearance in human hepatocytes; type: in vitro ADME; settings: read-out: intrinsic clearance (CIint)
[12] = Non-GLP 10-day repeat dose toxicity study in dogs; type: in vivo
Method: as §2

[13] = Clearance in dog hepatocytes; type: in vitro ADME; settings: read-out: intrinsic clearance (CIint)
[14] = Clearance in rat hepatocytes; type: in vitro ADME; settings: read-out: intrinsic clearance (CIint)
[15] = Plasma protein binding, dog; type: in vitro ADME; settings: 37° C., one range given for rat, dog and human, read-out: bound to plasma proteins
Method: as §3

[16] = test system: Salmonella typhimurium; type: cell-based
Method: as §2

hERG channel, sequence (Q12809 whole entry): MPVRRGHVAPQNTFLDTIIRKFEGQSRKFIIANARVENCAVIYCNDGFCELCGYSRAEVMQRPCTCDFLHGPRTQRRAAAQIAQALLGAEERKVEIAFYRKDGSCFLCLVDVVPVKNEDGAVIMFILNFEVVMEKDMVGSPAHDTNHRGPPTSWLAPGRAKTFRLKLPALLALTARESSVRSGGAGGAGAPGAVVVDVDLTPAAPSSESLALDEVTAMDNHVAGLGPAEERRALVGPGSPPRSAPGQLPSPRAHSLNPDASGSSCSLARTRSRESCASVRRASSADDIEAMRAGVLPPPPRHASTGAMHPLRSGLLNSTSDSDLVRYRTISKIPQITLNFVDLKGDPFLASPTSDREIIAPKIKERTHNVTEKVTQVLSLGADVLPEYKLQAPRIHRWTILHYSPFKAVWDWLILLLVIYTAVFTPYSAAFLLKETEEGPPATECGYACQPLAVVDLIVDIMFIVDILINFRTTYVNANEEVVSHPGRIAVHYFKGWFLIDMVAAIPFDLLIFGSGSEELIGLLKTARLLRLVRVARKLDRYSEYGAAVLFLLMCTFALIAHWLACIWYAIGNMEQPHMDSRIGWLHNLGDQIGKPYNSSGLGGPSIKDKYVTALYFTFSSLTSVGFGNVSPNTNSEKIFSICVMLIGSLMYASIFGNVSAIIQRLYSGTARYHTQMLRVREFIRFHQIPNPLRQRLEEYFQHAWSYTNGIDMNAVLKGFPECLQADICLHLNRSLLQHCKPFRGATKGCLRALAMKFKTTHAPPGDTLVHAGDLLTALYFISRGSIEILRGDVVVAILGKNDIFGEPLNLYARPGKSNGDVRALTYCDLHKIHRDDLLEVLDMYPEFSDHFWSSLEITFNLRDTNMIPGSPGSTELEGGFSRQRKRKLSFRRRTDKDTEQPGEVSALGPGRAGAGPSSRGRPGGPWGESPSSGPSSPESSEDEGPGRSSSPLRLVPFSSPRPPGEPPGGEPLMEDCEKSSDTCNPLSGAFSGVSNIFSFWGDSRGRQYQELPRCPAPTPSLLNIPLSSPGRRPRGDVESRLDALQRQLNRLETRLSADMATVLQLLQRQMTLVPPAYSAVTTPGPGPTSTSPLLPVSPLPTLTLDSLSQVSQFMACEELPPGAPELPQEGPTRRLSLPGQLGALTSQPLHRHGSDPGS

Structure (SMILES): C=CC(N)CCC(=O)O (stereo not shown) [vigabatrin, reference compound]
- retinal B-wave amplitudes ([1]; mouse, in vivo): reductions in retinal B-wave amplitudes
- weight ([1]; mouse, in vivo): marked reduction in weight

Structure (SMILES): N[C@H]1C=C(C(=O)O)CC1=C(F)F [(S)-3-amino-4-(difluoromethylenyl)cyclopent-1-ene-1-carboxylic acid]
- exposure (AUC basis) in dogs compared with rats ([2]; equivalent oral doses): higher exposure
- half-life ([2]; in vivo, dog, oral administration, read-out: elimination half-life (t½)): 75 to 90 min
- Tmax ([2]; in vivo, dog, oral administration, read-out: time of maximum concentration (Tmax)): 15 to 30 min
- NOAEL ([3]; from 6 mg/kg mouse, Reagan-Shaw conversion, read-out: human dose converted from mouse NOAEL): 0.49 mg/kg
- NOAEL ([3]; mouse, adult mice, by mouth, behavioral neurotoxicity, read-out: acute no-observed adverse-effect level (NOAEL)): 6 mg/kg
- human dose converted from tolerated rat dose ([4]; from 1 mg/kg/day rat (so in the source), Reagan-Shaw conversion): 0.48 mg/kg/day
- well tolerated dose for all assessed ocular endpoints ([4]; rats, 45 days, fundoscopy, ERG, OCT and histological assessments, initial results): up to 3 mg/kg/day
- half-life ([5]; read-out: elimination half-life (t½)): 75 to 90 min
- Tmax ([5]; read-out: time of maximum concentration (Tmax)): 15 to 30 min
- fraction unbound [6]: 0.8 to 0.96
- fraction unbound [7]: 0.8 to 0.96
- tolerability ([1]; 1 mg/kg/d by mouth for 45 days): well tolerated
- human dose converted from tolerated mouse dose ([1]; from 1 mg/kg/day mouse, Reagan-Shaw conversion): 0.08 mg/kg/day
- well tolerated dose, female rats ([8]; 10-day dosing, female rats): ≤ 10 mg/kg
- well tolerated dose, male rats ([8]; 10-day dosing, male rats): up to 15 mg/kg
- human dose converted from tolerated rat dose ([8]; from 10 mg/kg rat): 1.62 mg/kg
- human dose converted from tolerated rat dose ([8]; from 15 mg/kg rat): 2.4 mg/kg
- hERG channel activity [9]: No evidence of genetic toxicity or hERG channel activity
- genetic toxicity [10]: No evidence of genetic toxicity
- CLint scaled [11]: 13.1 mL/min/kg
- well tolerated dose, dogs ([12]; 10-day dosing, male and female dogs): up to 1.0 mg/kg
- human dose converted from tolerated dog dose ([12]; from 1 mg/kg dog, Reagan-Shaw conversion): 1.54 mg/kg
- CLint scaled [13]: 8.97 mL/min/kg
- CLint scaled [14]: 24.3 mL/min/kg
- fraction unbound [15]: 0.8 to 0.96
- genotoxicity in the Ames assay [16]: not genotoxic

— patent US20240009160A1, “USE OF (S)-3-AMINO-4-(DIFLUOROMETHYLENYL)CYCLOPENT-1-ENE-1-CARBOXYLIC ACID IN THE TREATMENT OF CANCER” (Ovid Therapeutics, Inc., priority 2022, published 2024)
